According to ChEMBL document CHEMBL1129401, “Molecular electronic properties of a series of 4-quinolinecarbinolamines define antimalarial activity profile” (1996):

tested on: Plasmodium berghei; assay: In vivo antimalarial activity against Plasmodium berghei infected mice (Mus musculus) at 640 mg/kg subcutaneous single dose; format: functional; details: not given

With `OC(c1cc(-c2ccccc2)nc2c(C(F)(F)F)cccc12)C1CCCCN1` (stereo unspecified) as the compound, how does the MfI read?
The MfI was 0.11.

Which MfI does the source give for `OC(c1cc(-c2ccccc2)nc2c(Cl)cccc12)C1CCCCN1` (stereo unspecified) here?
The MfI was 0.05.

`OC(c1cc(Oc2ccc(Cl)c(Cl)c2)nc2c(Cl)cc(Cl)cc12)C1CCCCN1` (stereo unspecified) was tested. Which MfI did it give?
The MfI was 0.87.

How did the MfI turn out when `OC(c1cc(-c2ccc(Cl)cc2)nc2c(Cl)cc(Cl)cc12)C1CCCCN1` (stereo unspecified) was run?
Its MfI is 1.29.

Which MfI does the source give for `COc1ccc(-c2cc(C(O)C3CCCCN3)c3cc(C)cc(C)c3n2)cc1` (stereo unspecified) here?
Its MfI is 0.03.

`OC(c1cc(-c2cccc(C(F)(F)F)c2)nc2c(C(F)(F)F)cccc12)C1CCCCN1` (stereo unspecified) was tested. Which MfI did it give?
The MfI was 1.2.

`Cc1ccc(-c2cc(C(O)C3CCCCN3)c3cccc(C(F)(F)F)c3n2)cc1` (stereo unspecified) was tested. Which MfI did it give?
Its MfI is 0.09.

How did the MfI turn out when `Cc1ccc(-c2cc(C(O)C3CCCCN3)c3cc(C)cc(C)c3n2)cc1` (stereo unspecified) was run?
Its MfI is 0.1.

Which MfI does the source give for `COc1cc(C(F)(F)F)c2nc(C(F)(F)F)cc(C(O)C3CCCCN3)c2c1` (stereo unspecified) here?
Its MfI is 0.81.

For `OC(c1cc(C(F)(F)F)nc2c1ccc1ccccc12)C1CCCCN1` (stereo unspecified), which MfI is on record?
The MfI was 0.13.

With `OC(c1cc(-c2ccccc2)nc2c(Cl)cc(Cl)cc12)C1CCCCN1` (stereo unspecified) as the compound, how does the MfI read?
The MfI was 0.04.

Which MfI does the source give for `COc1ccc(-c2cc(C(O)C3CCCCN3)c3cccc(C(F)(F)F)c3n2)cc1` (stereo unspecified) here?
Its MfI is 0.07.

How did the MfI turn out when `Cc1cccc2c(C(O)C3CCCCN3)cc(-c3ccc(F)cc3)nc12` (stereo unspecified) was run?
The MfI was 0.05.

How did the MfI turn out when `OC(c1cc(-c2ccc(Cl)cc2)nc2c(C(F)(F)F)cccc12)C1CCCCN1` (stereo unspecified) was run?
Its MfI is 0.31.

With `Cc1cc(C)c2nc(-c3ccc(F)cc3)cc(C(O)C3CCCCN3)c2c1` (stereo unspecified) as the compound, how does the MfI read?
Its MfI is 0.03.

`OC(c1cc(C(F)(F)F)nc2c(Cl)cc(Cl)cc12)C1CCCCN1` (stereo unspecified) was tested. Which MfI did it give?
Its MfI is 0.17.

For `Cc1cc(C)c2nc(Nc3ccc(Cl)cc3)cc(C(O)C3CCCCN3)c2c1` (stereo unspecified), which MfI is on record?
Its MfI is 0.03.

`OC(c1cc(C(F)(F)F)nc2c(Cl)cccc12)C1CCCCN1` (stereo unspecified) was tested. Which MfI did it give?
The MfI was 0.03.

With `Cc1cccc2c(C(O)C3CCCCN3)cc(-c3ccc(Cl)cc3)nc12` (stereo unspecified) as the compound, how does the MfI read?
Its MfI is 0.07.

With `Cc1cc(C)c2nc(Oc3ccc(Cl)cc3)cc(C(O)C3CCCCN3)c2c1` (stereo unspecified) as the compound, how does the MfI read?
The MfI was 0.03.

`OC(c1cc(C(F)(F)F)nc2c1cc(Cl)c1ccccc12)C1CCCCN1` (stereo unspecified) was tested. Which MfI did it give?
The MfI was 0.12.

Which MfI does the source give for `Cc1cc(C)c2nc(-c3ccc(Cl)cc3)cc(C(O)C3CCCCN3)c2c1` (stereo unspecified) here?
Its MfI is 0.03.

For `OC(c1cc(-c2ccccc2)nc2c1ccc1ccccc12)C1CCCCN1` (stereo unspecified), which MfI is on record?
The MfI was 0.1.

How did the MfI turn out when `OC(c1cc(Oc2ccc(Cl)cc2)nc2c(Cl)cc(Cl)cc12)C1CCCCN1` (stereo unspecified) was run?
The MfI was 0.8.

same assay, conditions: 640 mg/kg

How did the MfI turn out when `OC(c1cc(C(F)(F)F)nc2c(C(F)(F)F)cccc12)C1CCCCN1` (stereo in doubt; 1d) [MEFLOQUINE] was run?
Its MfI is 0.81.

With `OC(c1cc(C(F)(F)F)nc2c(C(F)(F)F)cccc12)C1CCCCN1` (stereo in doubt; 1a) [MEFLOQUINE] as the compound, how does the MfI read?
The MfI was 1.

tested on: Plasmodium berghei; assay: In vivo antimalarial activity against Plasmodium berghei infected mice (Mus musculus) at 640 mg/kg subcutaneous single dose; NC=non-curative; format: functional, organism-based; set-up: dose 640 mg/kg; details: not given

Which MfI does the source give for `OC(c1ccnc2c(Cl)cccc12)C1CCCCN1` (stereo unspecified) here?
The MfI was “Noncurative dose”.

With `Cc1cccc2c(C(O)C3CCCCN3)cc(-c3ccccc3)nc12` (stereo unspecified) as the compound, how does the MfI read?
Its MfI is “Noncurative dose”.

Which MfI does the source give for `OC(c1cc(C(F)(F)F)nc2c(F)cccc12)C1CCCCN1` (stereo unspecified) here?
Its MfI is “Noncurative dose”.

For `Cc1ccc(-c2cc(C(O)C3CCCCN3)c3cccc(C)c3n2)cc1` (stereo unspecified), which MfI is on record?
The MfI was “Noncurative dose”.

`OC(c1cc(-c2ccc(Cl)cc2)nc2c1ccc1ccccc12)C1CCCCN1` (stereo unspecified) was tested. Which MfI did it give?
The MfI was “Noncurative dose”.

With `Cc1cc(C)c2nc(C(F)(F)F)cc(C(O)C3CCCCN3)c2c1` (stereo unspecified) as the compound, how does the MfI read?
The MfI was “Noncurative dose”.

For `OC(c1ccnc2c(C(F)(F)F)cccc12)C1CCCCN1` (stereo unspecified), which MfI is on record?
The MfI was “Noncurative dose”.

`NC(=O)c1cc(C(O)C2CCCCN2)c2cccc(C(F)(F)F)c2n1` (stereo unspecified) was tested. Which MfI did it give?
Its MfI is “Noncurative dose”.

How did the MfI turn out when `Cc1cc(C)c2nc(CC/C=C/c3ccc(Cl)cc3)cc(C(O)C3CCCCN3)c2c1` (stereo unspecified) was run?
The MfI was “Noncurative dose”.

Which MfI does the source give for `OC(c1cc(-c2ccc(Cl)cc2)nc2c(Cl)cccc12)C1CCCCN1` (stereo unspecified) here?
The MfI was “Noncurative dose”.

For `OC(c1ccnc2c(Cl)cc(Cl)cc12)C1CCCCN1` (stereo unspecified), which MfI is on record?
Its MfI is “Noncurative dose”.

For `O=C(Nc1cccc(C(F)(F)F)c1)c1cc(C(O)C2CCCCN2)c2cccc(C(F)(F)F)c2n1` (stereo unspecified), which MfI is on record?
Its MfI is “Noncurative dose”.

For `Cc1cccc2c(C(O)C3CCCCN3)cc(C(F)(F)F)nc12` (stereo unspecified), which MfI is on record?
Its MfI is “Noncurative dose”.

For `Cc1cc(C)c2nc3c(c(C(O)C4CCCCN4)c2c1)CCC3` (stereo unspecified), which MfI is on record?
The MfI was “Noncurative dose”.

With `Cc1cc(C(O)C2CCCCN2)c2cc(Cl)cc(Cl)c2n1` (stereo unspecified) as the compound, how does the MfI read?
The MfI was “Noncurative dose”.
